# Test system: hepatitis virus B (HBV) infection
# Test: HepG2 NTCP assay (HBcAg staining as marker of HBV infection)
# Assay type: cell-based
# Settings: HepG2-NTCP cells infected with HBV, HBV core antigen (HBcAg) as marker of infection
# Excerpt: The principle of the hepG2-NTCP assay is to measure the effect of a test compound on the inhibition of the hepatitis virus B (HBV) infection compared to a reference compound. To be able to infect the hepatocellular carcinoma cells (HepG2) with HBV, HepG2 cells were stably transfected with the Na+-taurocholate co-transporting polypeptide (NTCP) receptor, also referred to as Sodium/bile acid cotransporter (SLC10A1), which is necessary for HBV infection. In this assay the HBV core antigen (HBcAg) is used as a marker of HBV infection. Nuclei count is used as an indication for compound toxicity.
# On day one, HepG2-NTCP cells ((Ni et al., 2014)) are seeded at 5000 cells in 50 µL per well in assay medium (DMEM high glucose supplemented with 10% non-heat inactivated (non HI) fetal bovine serum (FBS), 1% P/S, 1% L-glutamine and 1% MEM NEAA) in 384 well plate and incubated at 37°C, 5% CO2 overnight.
# Compounds are prepared as 10 point serial dilutions using 1/3 dilution steps in 100% DMSO starting from 10 mM highest concentration, unless otherwise requested for very potent compounds, which started from 5mM or 1mM stock. Compounds are further diluted 1/500 in assay medium.
# A negative control (vehicle: 24 wells with 0.2% DMSO) and positive control (24 wells with 100nM Myrcludex B (Cas no.: 406461-66-3), 0.2% DMSO and in 10 point DR) are included in the experiments.
# On the second day, 40µl medium is removed from the cells with the plate washer (Select 405 microplate washer, Biotek). 15 µL of diluted compound series is transferred to the assay plate and cells are infected with 15 µL of HBV mix (HBV virus, 4%PEG, 1%DMSO in assay medium). The infection is performed in assay medium containing final concentration of 1% DMSO. The assay plate is incubated at 37°C, 5% CO2 overnight.
# The next day, 30µl compound and HBV mix are removed from the assay plate with the plate washer and 30 µL of compound series diluted 1/500 in assay medium containing final concentration of 2.5% DMSO is added to the cell assay plate. The assay plate is incubated at 37°C, 5% CO2 for 5 days.
# After 5 days of incubation, supernatant is removed from the cells with the plate washer. Cells are fixed with 50 µL of 3.7% formaldehyde added with the Well mate (Matrix technologies) and incubated for 30 min at room temperature. After fixation, cells are washed four times with phosphate buffer saline (1xPBS, 137mM NaCl, 10mM na2HPO4, 2.7mM KCl, 1.8mM KH2PO4 at pH7.4). The cells are finally subjected to HBc staining.
# First, the assay plate is blocked with blocking buffer (2%FBS, 3% BSA, 0.2% TritonX100 in PBS) for 1 h at room temperature (optional to block overnight at 4°C).
# After 4 washes of PBST (1XPBS + 0.05% Tween) with the plate washer, the assay plate is incubated with 30 µL diluted primary antibody (1/700 Rabbit anti-HBV core antigen, Dako, B0586 or 1/350 Rabbit anti HBV core antigen, Invitrogen, PA516368) in blocking buffer and incubated for 90 min at room temperature.
# After 4 washes of PBST with the plate washer, the assay plate is incubated with 50 µL of secondary antibody (Donkey-anti-rabbit Alexa 488 antibody, Lifetechnologies A21206) 1/500 diluted in blocking buffer and incubated for 60 min at room temperature and in the dark.
# The assay plate is washed 4 times with PBST on the plate washer and incubated with 50µL of DAPI (Sigma D9542, stock 5mg/mL) 1/10000 diluted in PBS for 15-30 min at room temperature and in the dark. The assay plate is now ready for read out on the InCell Analyzer 2200 (GE Healthcare).
# Raw data are generated following read-out performed on InCell 2200 and are imported into the galapagos LIMS for automated calculation of percentage inhibition (PIN) and toxicity by nuclei count, using the control wells mentioned above, and creation of Dose Response curves. Table V. Hepg2 NTCP assay activity of illustrative compounds of the invention
row,Structure (SMILES),IC50 [nM]
1,"CC(C)C1Oc2cc(OCC3COC3)c(Cl)cc2-c2c1cc(C(=O)O)c(=O)n2C1CC1 (centres unmarked) [Compound 5, 9-chloro-1-cyclopropyl-5-isopropyl-8-(oxetan-3-ylmethoxy)-2-oxo-5H-chromeno[4,3-b]pyridine-3-carboxylic acid]",0.001 to 1
2,"CC(C)C1Oc2cc(OCC3COCCO3)c(Cl)cc2-c2c1cc(C(=O)O)c(=O)n2C1CC1 (centres unmarked) [Compound 7, 9-chloro-1-cyclopropyl-8-(1,4-dioxan-2-ylmethoxy)-5-isopropyl-2-oxo-5H-chromeno[4,3-b]pyridine-3-carboxylic acid]",0.001 to 1
3,"COCCCOc1ccc2c(c1Cl)OC(C(C)C)c1cc(C(=O)O)c(=O)n(C3CC3)c1-2 (centres unmarked) [Compound 8, 7-chloro-1-cyclopropyl-5-isopropyl-8-(3-methoxypropoxy) -2-oxo-5H-chromeno[4,3-b]pyridine-3-carboxylic acid]",1 to 20
4,"COCCCOc1cc2c(cc1Cl)-c1c(cc(C(=O)O)c(=O)n1C1CC1)C(C1COC1)O2 (centres unmarked) [Compound 13, 9-chloro-1-cyclopropyl-8-(3-methoxypropoxy) -5-(oxetan-3-yl)-2-oxo-5H-chromeno[4,3-b] pyridine-3-carboxylic acid]",0.001 to 1
5,"COCCCOc1cc2c(cc1Cl)-c1c(cc(C(=O)O)c(=O)n1C1CC1)C(C)(C)O2 [Compound 14, 9-chloro-1-cyclopropyl-8-(3-methoxypropoxy) -5,5-dimethyl-2-oxo-chromeno [4,3-b]pyridine-3-carboxylic acid]",1 to 20
6,"COCCCOc1cc2c(cc1Cl)-c1c(cc(C(=O)O)c(=O)n1C1CC1)C(C1(C#N)CC1)O2 (centres unmarked) [Compound 22, 9-chloro-5-(1-cyanocyclopropyl)-1-cyclopropyl-8-(3-methoxypropoxy) -2-oxo-5H-chromeno[4,3-b]pyridine-3-carboxylic acid]",0.001 to 1

# Next, values leading:
row,IC50 [nM],Structure (SMILES)
1,1 to 20,"COc1cc2c(cc1OC)-c1c(cc(C(=O)O)c(=O)n1C1CC1)C(C(C)(C)C)O2 (centres unmarked) [Compound 9, 5-tert-butyl-1-cyclopropyl-8,9-dimethoxy-2-oxo-5H-chromeno[4,3-b]pyridine-3-carboxylic acid]"
2,1 to 20,"COCCCOc1cc2c(cc1OC)-c1c(cc(C(=O)O)c(=O)n1C1CC1)C(C(C)C)O2 (centres unmarked) [Compound 10, 1-cyclopropyl-5-isopropyl-9-methoxy-8-(3-methoxypropoxy) -2-oxo-5H-chromeno[4,3-b]pyridine-3-carboxylic acid]"
3,0.001 to 1,"CCC1Oc2cc(OCCCOC)c(Cl)cc2-c2c1cc(C(=O)O)c(=O)n2C1CC1 (centres unmarked) [Compound 11, 9-chloro-1-cyclopropyl-5-ethyl-8-(3-methoxypropoxy) -2-oxo-5H-chromeno[4,3-b]pyridine-3-carboxylic acid]"
4,1 to 20,"CCC1Oc2cc(OCCCOC)c(OC)cc2-c2c1cc(C(=O)O)c(=O)n2C1CC1 (centres unmarked) [Compound 12, 1-cyclopropyl-5-ethyl-9-methoxy-8-(3-methoxypropoxy) -2-oxo-5H-chromeno[4,3-b]pyridine-3-carboxylic acid]"
5,20 to 100,"CCC1Oc2cc(OC)c(OC)cc2-c2c1cc(C(=O)O)c(=O)n2C1CC1 (centres unmarked) [Compound 15, 1-cyclopropyl-5-ethyl-8,9-dimethoxy-2-oxo-5H-chromeno[4,3-b]pyridine-3-carboxylic acid]"
6,20 to 100,"COc1cc2c(cc1OC)-c1c(cc(C(=O)O)c(=O)n1C1CC1)C(CO)O2 (centres unmarked) [Compound 18, 1-cyclopropyl-5-(hydroxymethyl)-8,9-dimethoxy-2-oxo-5H-chromeno[4,3-b]pyridine-3-carboxylic acid]"
7,1 to 20,"[2H]C([2H])([2H])Oc1cc2c(cc1OC)-c1c(cc(C(=O)O)c(=O)n1C1CC1)C(C(C)C)O2 (centres unmarked) [Compound 20, 1-cyclopropyl-5-isopropyl-9-methoxy-2-oxo-8-(trideuteriomethoxy)-5H-chromeno[4,3-b]pyridine-3-carboxylic acid]"
8,1 to 20,"COc1cc2c(cc1Cl)-c1c(cc(C(=O)O)c(=O)n1C1CC1)C(C1COC1)O2 (centres unmarked) [Compound 21, 9-chloro-1-cyclopropyl-8-methoxy-5-(oxetan-3-yl)-2-oxo-5H-chromeno[4,3-b]pyridine-3-carboxylic acid]"
